Test results: patent US11337950B2, “Biologically active cannabidiol analogs” (University of Mississippi, priority 2016, dated 2022)
Values joined by “and” are separate entries in the source; they are usually repeats but may differ in a detail not shown here. Equal entries are not always repeated.

Assay: Plasma and organ concentrations of CBD and CBD-Mono-VHS after IP administration (Example 22)
Type: in vivo
Details: mice, 70 Minutes; for Total CBD, Total, AVG. / Total CBD, Total / Total CBD-Mono-Val-Mono-HS, Total, AVG. / Total CBD-Mono-Val-Mono-HS, Total: sum of the columns; for CBD Plasma Concentration / Total CBD, Brain / Total CBD, Kidney / Total CBD, Liver / Total CBD, Spleen / Total CBD, Total / CBD-Mono-Val-Mono-HS Plasma Concentration / Total CBD-Mono-Val-Mono-HS, Brain / Total CBD-Mono-Val-Mono-HS, Kidney / Total CBD-Mono-Val-Mono-HS, Liver / Total CBD-Mono-Val-Mono-HS, Spleen / Total CBD-Mono-Val-Mono-HS, Total: individual animals; for CBD-Mono-Val-Mono-HS Plasma Concentration, AVG. / Total CBD-Mono-Val-Mono-HS, Brain, AVG. / Total CBD-Mono-Val-Mono-HS, Kidney, AVG. / Total CBD-Mono-Val-Mono-HS, Liver, AVG. / Total CBD-Mono-Val-Mono-HS, Spleen, AVG. / Total CBD-Mono-Val-Mono-HS, Total, AVG. / CBD-Mono-Val-Mono-HS Plasma Concentration / Total CBD-Mono-Val-Mono-HS, Brain / Total CBD-Mono-Val-Mono-HS, Kidney / Total CBD-Mono-Val-Mono-HS, Liver / Total CBD-Mono-Val-Mono-HS, Spleen / Total CBD-Mono-Val-Mono-HS, Total: IP; for CBD-Mono-Val-Mono-HS Plasma Concentration / Total CBD-Mono-Val-Mono-HS, Brain / Total CBD-Mono-Val-Mono-HS, Kidney / Total CBD-Mono-Val-Mono-HS, Liver / Total CBD-Mono-Val-Mono-HS, Spleen / Total CBD-Mono-Val-Mono-HS, Total: listed as CBD-Mono-Val-Mono-HS
Description: CBD-Mono-VHS was administered intraperitoneally to mice at 2 doses (30 μg and 60 μg equivalent of CBD/mouse). Seventy minutes after dosing the animals (3 mice in each dose group), all animals were sacrificed. Blood, as well as organs (liver, spleen, kidney, and brain), were harvested for LC-MS/MS analysis of their content of both CBD and CBD-Mono-VHS.
Also shown is the concentration of CBD-Mono-VHS in the plasma 70 minutes after dosing.

[1] = IP CBD-Mono-VHS, High Dose (60 μg CBD/mouse), AVG.
[2] = IP CBD-Mono-VHS, High Dose (60 μg CBD/mouse)
[3] = IP CBD-Mono-VHS, Low Dose (30 μg CBD/mouse), AVG.
[4] = IP CBD-Mono-VHS, Low Dose (30 μg CBD/mouse)
[5] = High Dose (60 μg CBD/mouse), AVG.
[6] = Low Dose (30 μg CBD/mouse), AVG.

C=C(C)C1CCC(C)=CC1c1c(O)cc(CCCCC)cc1OC(=O)[C@@H](NC(=O)CCC(=O)O)C(C)C (stereo partly drawn) [CBD-Mono-VHS, CBD-Mono-Valinate-Mono-Hemisuccinate]
Total CBD, Liver, AVG. [1]: 295.11 ng | Total CBD, Spleen, AVG. [1]: 64.42 ng | Total CBD, Total, AVG. [1]: 371.63 ng | CBD Plasma Concentration [2]: 0.00 ng/mL | Total CBD, Brain [2]: 0.00 ng (2×) and 2.86 ng | Total CBD, Kidney [2]: 18.50 ng and 14.96 ng and 0.00 ng | Total CBD, Liver [2]: 319.91 ng and 195.66 ng and 369.75 ng | Total CBD, Spleen [2]: 93.63 ng and 99.63 ng and 0.00 ng | Total CBD, Total [2]: 432.04 ng and 310.25 ng and 372.61 ng | CBD Plasma Concentration, AVG. [3]: 0.00 ng/mL | Total CBD, Brain, AVG. [3]: 0.00 ng | Total CBD, Kidney, AVG. [3]: 2.343 ng | Total CBD, Liver, AVG. [3]: 47.62 ng | Total CBD, Spleen, AVG. [3]: 9.46 ng | Total CBD, Total, AVG. [3]: 59.42 ng | CBD Plasma Concentration [4]: 0.00 ng/mL | Total CBD, Brain [4]: 0.00 ng | Total CBD, Kidney [4]: 7.03 ng and 0.00 ng (2×) | Total CBD, Liver [4]: 41.82 ng and 19.61 ng and 81.42 ng | Total CBD, Spleen [4]: 10.04 ng and 18.35 ng and 0.00 ng | Total CBD, Total [4]: 58.89 ng and 37.96 ng and 81.42 ng | CBD-Mono-Val-Mono-HS Plasma Concentration, AVG. [5]: 210.45 ng/mL | Total CBD-Mono-Val-Mono-HS, Brain, AVG. [5]: 63.51 ng | Total CBD-Mono-Val-Mono-HS, Kidney, AVG. [5]: 1193.95 ng | Total CBD-Mono-Val-Mono-HS, Liver, AVG. [5]: 7558.89 ng | Total CBD-Mono-Val-Mono-HS, Spleen, AVG. [5]: 771.76 ng | Total CBD-Mono-Val-Mono-HS, Total, AVG. [5]: 9798.56 ng | CBD-Mono-Val-Mono-HS Plasma Concentration (High Dose (60 μg CBD/mouse)): 137.82 ng/mL and 100.53 ng/mL and 393.00 ng/mL | Total CBD-Mono-Val-Mono-HS, Brain (High Dose (60 μg CBD/mouse)): 46.59 ng and 42.45 ng and 101.50 ng | Total CBD-Mono-Val-Mono-HS, Kidney (High Dose (60 μg CBD/mouse)): 780.57 ng and 248.34 ng and 2552.93 ng | Total CBD-Mono-Val-Mono-HS, Liver (High Dose (60 μg CBD/mouse)): 8380.90 ng and 2882.40 ng and 11413.38 ng | Total CBD-Mono-Val-Mono-HS, Spleen (High Dose (60 μg CBD/mouse)): 711.31 ng and 477.40 ng and 1126.58 ng | Total CBD-Mono-Val-Mono-HS, Total (High Dose (60 μg CBD/mouse)): 10057.18 ng and 3751.113 ng and 15587.4 ng | CBD-Mono-Val-Mono-HS Plasma Concentration, AVG. [6]: 29.10 ng/mL | Total CBD-Mono-Val-Mono-HS, Brain, AVG. [6]: 9.18 ng | Total CBD-Mono-Val-Mono-HS, Kidney, AVG. [6]: 101.58 ng | Total CBD-Mono-Val-Mono-HS, Liver, AVG. [6]: 1170.01 ng | Total CBD-Mono-Val-Mono-HS, Spleen, AVG. [6]: 179.54 ng | Total CBD-Mono-Val-Mono-HS, Total, AVG. [6]: 1489.42 ng | CBD-Mono-Val-Mono-HS Plasma Concentration (Low Dose (30 μg CBD/mouse)): 32.08 ng/mL and 32.24 ng/mL and 22.97 ng/mL | Total CBD-Mono-Val-Mono-HS, Brain (Low Dose (30 μg CBD/mouse)): 13.48 ng and 8.26 ng and 5.81 ng | Total CBD-Mono-Val-Mono-HS, Kidney (Low Dose (30 μg CBD/mouse)): 88.05 ng and 84.14 ng and 132.55 ng | Total CBD-Mono-Val-Mono-HS, Liver (Low Dose (30 μg CBD/mouse)): 1431.98 ng and 534.11 ng and 1543.96 ng | Total CBD-Mono-Val-Mono-HS, Spleen (Low Dose (30 μg CBD/mouse)): 105.24 ng and 283.02 ng and 150.36 ng | Total CBD-Mono-Val-Mono-HS, Total (Low Dose (30 μg CBD/mouse)): 1670.831 ng and 941.765 ng and 1855.656 ng
